Data taken from ChEMBL document CHEMBL4840328, “The Phytochemical Scoulerine Inhibits Aurora Kinase Activity to Induce Mitotic and Cytokinetic Defects” (J Nat Prod, 2021).
The source made the active and inactive calls. The calls are words filed in the database; no cut-off is given here.

Experiments:
[1] = tested on: HRPE; assay: Induction of cell cycle arrest in human RPE cells expressing MYC-Bcl2 assessed as disorganized NUMA1 at 4 uM for 6 hrs by immunostaining analysis; format: functional, cell-based
[2] = tested on: HRPE; assay: Cytotoxicity against HRPE cells overexpressing MYC-H2BGFP assessed as cell viability measured after 72 hrs by MTT assay; format: functional, cell-based; details: Homo sapiens
[3] = tested on: HRPE; assay: Induction of mitotic arrest in HRPE Cells overexpressing MYC at 20 uM by acridine orange staining based fluorescence microscopic analysis; format: functional, tissue-based; details: Homo sapiens
[4] = tested on: HRPE; assay: Induction of cell cycle arrest in HRPE cells overexpressing MYC/Bcl2 assessed as centrosome amplification measured after 6 hrs by DAPI staining based analysis; format: functional; details: Homo sapiens
[5] = tested on: NCI-H23; assay: Cytotoxicity against human NCI-H23 cells harboring MYC assessed as cell viability measured after 72 hrs by MTT assay; format: functional, cell-based; details: NCI-H23, 72 h
[6] = tested on: HeLa; assay: Cytotoxicity against human HeLa cells assessed as cell viability measured after 72 hrs by MTT assay; format: functional, cell-based
[7] = tested on: SW480; assay: Cytotoxicity against human SW480 cells assessed as cell viability measured after 72 hrs by MTT assay; format: functional, cell-based; details: SW480, 72 h
[8] = tested on: NCI-H460; assay: Cytotoxicity against human NCI-H460 cells assessed as centrosome amplification and declustering by measuring multiple foci by immunostaining analysis; format: functional, cell-based; details: time 72.0 hrs
[9] = target: Aurora kinase B (Homo sapiens) (UniProt Q96GD4); assay: Inhibition of AURKB (unknown origin) in HRPE cells overexpressing MYC/Bcl2 assessed as decrease in H3PS10 fluorescence intensity at 20 uM measured for 6 hrs by immunostaining based fluorescence microscopic analysis; format: cell-based
[10] = Induction of mitotic arrest in HRPE Cells overexpressing MYC measured for 24 hrs by acridine orange staining based fluorescence microscopic analysis; format: functional, tissue-based, Homo sapiens
[11] = tested on: MDA-MB-231; assay: Cytotoxicity against human MDA-MB-231 cells assessed as cell viability measured after 72 hrs by MTT assay; format: functional, cell-based; details: MDA-MB-231, 72 h
[12] = Cytotoxicity against HRPE cells overexpressing MYC assessed as cell viability measured after 72 hrs by MTT assay; format: functional, cell-based; details: Homo sapiens
[13] = tested on: HRPE; assay: Induction of cell cycle arrest in human RPE cells expressing MYC-Bcl2 assessed as disorganized alpha-tubulin at 4 uM for 6 hrs by immunostaining analysis; format: functional, cell-based
[14] = tested on: HRPE; assay: Induction of cell cycle arrest in human RPE cells expressing MYC-Bcl2 assessed as foci in colocalized gamma-tubulin at 4 uM for 6 hrs by immunostaining analysis; format: functional, cell-based
[15] = tested on: HRPE; assay: Induction of cell cycle arrest in human RPE cells expressing MYC-Bcl2 assessed as foci in colocalized Aurora kinase A at 4 uM for 6 hrs by immunostaining analysis; format: functional, cell-based
[16] = tested on: A549; assay: Cytotoxicity against human A549 cells assessed as cell viability measured after 72 hrs by MTT assay; format: functional, cell-based; details: A549, 72 h
[17] = Cytotoxicity against human wild type p53HCT116 cells assessed as cell viability measured after 72 hrs by MTT assay; format: functional, cell-based; details: p53HCT116, 72 h
[18] = target: T1, Aurora kinase A (Homo sapiens) (UniProt O14965); assay: Inhibition of AURKA (unknown origin) in HRPE cells overexpressing MYC/Bcl2 assessed as inhibition of autophosphorylation of threonine 288 at 20 uM measured for 6 hrs by immunostaining based fluorescence microscopic analysis; format: cell-based
T1 sequence (whole entry): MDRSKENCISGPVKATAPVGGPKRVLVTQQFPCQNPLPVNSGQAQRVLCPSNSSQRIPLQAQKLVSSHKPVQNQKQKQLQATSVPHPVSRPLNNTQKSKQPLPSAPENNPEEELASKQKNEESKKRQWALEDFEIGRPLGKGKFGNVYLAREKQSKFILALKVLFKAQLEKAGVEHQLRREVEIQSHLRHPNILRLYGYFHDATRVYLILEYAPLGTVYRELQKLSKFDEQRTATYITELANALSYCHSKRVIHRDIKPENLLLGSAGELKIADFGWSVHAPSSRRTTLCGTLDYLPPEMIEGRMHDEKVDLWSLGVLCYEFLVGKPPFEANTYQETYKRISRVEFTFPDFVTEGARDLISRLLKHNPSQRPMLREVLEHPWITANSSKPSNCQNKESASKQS

[19] = tested on: HRPE; assay: Induction of mitotic arrest in HRPE Cells overexpressing MYC assessed as polyploidy at 5 uM by acridine orange staining based fluorescence microscopic analysis; format: functional, tissue-based; details: Homo sapiens
[20] = Cytotoxicity against human HCT116-p53-null cells assessed as cell viability measured after 72 hrs by MTT assay; format: functional, cell-based
[21] = Cytotoxicity against HRPE cells overexpressing MYC/Bcl2 assessed as cell viability measured after 72 hrs by MTT assay; format: functional, cell-based; details: Homo sapiens
[22] = tested on: HRPE; assay: Induction of mitotic arrest in HRPE Cells overexpressing MYC-Bcl2 measured for 46 to 62 hrs by time-lapse analysis; format: functional, tissue-based; details: Homo sapiens, dose 2-4 µM, time 46-62 hrs
[23] = Induction of mitotic arrest in HRPE Cells overexpressing MYC assessed as polyploidy measured for 48 hrs by acridine orange staining based fluorescence microscopic analysis; format: functional, tissue-based, Homo sapiens

Chain of Aurora kinase B (Homo sapiens) (Q96GD4 whole entry): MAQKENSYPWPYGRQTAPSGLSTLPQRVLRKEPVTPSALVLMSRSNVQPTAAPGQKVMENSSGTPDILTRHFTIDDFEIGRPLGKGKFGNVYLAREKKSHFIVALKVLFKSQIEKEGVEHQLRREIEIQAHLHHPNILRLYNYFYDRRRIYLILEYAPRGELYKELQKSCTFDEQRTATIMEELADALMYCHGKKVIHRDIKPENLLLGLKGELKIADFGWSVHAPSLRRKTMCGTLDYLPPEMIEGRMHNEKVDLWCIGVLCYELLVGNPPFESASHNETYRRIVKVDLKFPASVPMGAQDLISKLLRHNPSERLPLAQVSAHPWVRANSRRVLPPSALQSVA

Q: Which Activity [1] does the source give for `CCN(CCCOc1ccc2c(Nc3cc(CC(=O)Nc4cccc(F)c4)[nH]n3)ncnc2c1)CCOP(=O)(O)O` here?
A: inactive

Q: With `COc1cc(Nc2ncc3c(n2)-c2ccc(Cl)cc2C(c2c(F)cccc2OC)=NC3)ccc1C(=O)O` as the molecule, how does the Activity [2] read?
A: Active

Q: Which Activity [3] does the source give for `COc1cc2c(cc1O)[C@@H]1Cc3ccc(O)c(OC)c3CN1CC2` here?
A: inactive

Q: Which Activity [3] does the source give for `COc1cc2c(cc1OC)[C@@H]1Cc3ccc(OC)c(OC)c3CN1CC2` here?
A: inactive

Q: With `COc1cc2c(cc1O)[C@@H]1Cc3ccc(OC)c(O)c3CN1CC2` [SCOULERINE] as the molecule, how does the Activity [4] read?
A: inactive

Q: What about the IC50 [5] of the same molecule?
A: 2.54 µM

Q: What about the IC50 [6] of the same molecule?
A: 6.74 µM

Q: And the IC50 [7]?
A: 4.24 µM

Q: And the Activity [8]?
A: Active

Q: And the inhibition [9]?
A: Active

Q: And the EC50 [10]?
A: 3.54 µM

Q: What about the Activity [1] of the same molecule?
A: Active

Q: What about the IC50 [11] of the same molecule?
A: 7.32 µM

Q: And the Activity [3]?
A: inactive

Q: What about the IC50 [12] of the same molecule?
A: 4.07 µM

Q: And the Activity [13]?
A: Active

Q: And the Activity [14]?
A: Active

Q: And the Activity [15]?
A: Active

Q: And the IC50 [16]?
A: 26.3 µM

Q: What about the IC50 [17] of the same molecule?
A: 6.81 µM

Q: What about the inhibition [18] of the same molecule?
A: Active

Q: What about the Activity [19] of the same molecule?
A: Active

Q: What about the IC50 [20] of the same molecule?
A: 5.48 µM

Q: What about the IC50 [21] of the same molecule?
A: 4.62 µM

Q: And the Activity [22]?
A: Dose-Dependent Effect

Q: And the Activity [2]?
A: inactive

Q: What about the EC50 [23] of the same molecule?
A: 3.6 µM
